Assay results taken from patent US20090118242A1 (AlgoRx, priority 2002, published 2009).
Where “and” joins values, the source holds several entries; their conditions need not be identical. Equal values may be shown once.

Columns and labels:
[1] = set-up: species or system human; details: in vivo
Procedure: The pharmacokinetic parameters of Cmax, Tmax, AUC (0−tlast) and t½ were evaluated.

[2] = tested on: subjects undergoing transpositional osteotomy (bunionectomy); experiment: Bunionectomy Efficacy Study: VAS pain at operation site and rescue medication; format: in vivo, human; details: for VAS pain score at operation site (mean +/− SEM): 1000 μg into wound, n = 11
Procedure: The primary efficacy endpoint was the proportion of subjects in each treatment group requiring opioid analgesia in the first 24 hours post-operatively. The proportions were compared amongst treatment groups using the Cochran-Haenszel test. Secondary efficacy end points included: i) proportion of subjects in each treatment group requiring opioid analgesia in the first 36 hour period post-operatively (Similarly, the proportions were compared amongst treatment groups using the Cochran-Haenszel test); ii) proportion of subjects in each treatment group requiring opioid analgesia in the 10 day period post-operatively (Similarly, the proportions were compared amongst treatment groups using the Cochran-Haenszel test); iii) time to first usage of opioid analgesia in each treatment group (a survival analysis approach will be used: the product-limit (Kaplan-Meier) method will be applied to time to first usage of opioid analgesia. The median time to first usage of opioid analgesia will be estimated in both treatment groups. Pairwise comparisons will be performed to test for equality of the survival curves between the 2 treatment groups using both the log-rank and the Wilcoxon test); iv) total usage of analgesia in each treatment group (the total usage of analgesia will be compared by an analysis of variance with treatment and center as independent variables. A pairwise comparison will be performed between the treatment groups); and v) VAS, assessment of pain at the site of operation in each treatment group. (The VAS score at each time point will be compared by an analysis of variance with treatment and center as independent variables. A pairwise comparison will be performed between the treatment groups). […] The efficacy analysis was performed on the data obtained ten days postoperatively. The safety analysis was performed based on the safety data for the entire study, including the 6 week and 12 week follow-up periods. The blind was broken at the time the efficacy analysis was performed. However, the individual treatment assignment was available to the statistical analysis group only. All other personnel involved in the study, including the Investigator, study monitor and proprietary staff, remained blinded until the entire study was completed.
The study was designed to include 40 evaluation subjects. […] Each subject had six (6) study visits: a Screening Day (Day −28 to −1), an Operation Day (Day 0), and four (4) Follow-up visits (scheduled for Days 3, 10 and weeks 6 and 12).
On Operation Day (Day 0) the following was performed: a) Pre-operation: Prior to the initiation of an ankle block, inclusion/exclusion criteria assessment was performed. […] Immediately prior to wound closure, the Investigator slowly dripped the study medication (4 mL) from a syringe into the wound, ensuring even tissue exposure. The wound was then be closed according to normal practices and procedures.
In the 24 hours following administration of study medication, vital signs (supine pulse rate and blood pressure) were recorded at 1, 2, 4 and 24 hours post administration. VAS assessment of pain at the operation site was performed at 1, 4, 8, 12 and 24 hours post administration. In those instances where VAS measurements coincide with blood sampling procedures, the VAS assessment was performed first. […] The quantity of each blood sample was 10 mL. Laboratory safety assessments, e.g., haematology, biochemistry, urinalysis were performed at 24 hours post administration. Adverse events were spontaneously reported by the subject and recorded. Rescue analgesia medication was provided to the subject if required (initially diclofenac 50 mg, repeated at 8-hourly intervals if necessary). When diclofenac was judged by the Investigator to provide inadequate pain relief then the subject was provided with alfentanil 1 mg, repeated at 6 hourly intervals, if necessary.

[3] = tested on: subjects with osteoarthritis of the knee; experiment: Osteoarthritis of the Knee Safety Study: VAS pain score at the target knee; format: in vivo, human
Procedure: (§1) Each subject had 3 study visits: a Screening Day (Day −7 to −1), the Treatment Day (Day 0), and a Post-Treatment Day (scheduled for Day +2, +4, +7, or +14). On the Treatment Day the subject was randomized, pre-treatment evaluation was performed. The patients were brought into the procedure room, and a VAS pain score was taken (0 mm—no pain, 100 mm—extreme pain). Once the patient had marked his or her pain on the card, he/she was prepped for knee cannulation. Once the cannula was placed, the patient received by intra-articular infiltration, 3 mg/kg (maximum dose of 200 mg) of 2% lignocaine into the knee scheduled to be replaced.
(§2) VAS pain scores as well as verbal reports were taken immediately following administration, as well as prior to knee replacement surgery. No subjects discontinued from the study due to adverse events.
On the Post-Treatment Day, study evaluation was performed followed by the scheduled knee replacement, with intra-operative bone and soft tissue biopsies performed for subsequent examination. […] This therefore left the 3 placebo and 9 active patients from the 4 day, 7 day, and 14 day cohorts.

[4] = tested on: subjects with osteoarthritis of the knee; experiment: Osteoarthritis of the Knee Safety Study: safety and tolerability of intra-articular purified capsaicin with local anesthetic; format: in vivo, human
Procedure: The primary objective of the study was to evaluate the safety and tolerability of intra-articular capsaicin, when co-administered with intra-articular local anesthetic, compared to placebo, in subjects with end-stage osteoarthritis of the knee, already scheduled to receive knee replacements.
The study was designed to include 16 evaluation subjects. […] Sixteen subjects completed the study.
Patients were treated randomly and in double-blind fashion in four treatment groups, with each group having a progressively longer interval between the intra-articular administration of study medication and subsequent total knee replacement (2, 4, 7, and 14 days). […] Gross and microscopic pathology analysis was completed for each treatment group before the next treatment group was treated.
as §1, §2

rats = details: systemic, final doses of 25 mg/kg or less; cited from earlier work
[5] = tested on: animal models of inflammatory (formalin test) pain; details: administered locally; cited from earlier work
patients = details: cited from earlier work
[6] = 1000 μg prior to wound closure, n=11
[7] = 10, 100, 300 μg intra-articular

## COc1cc(CNC(=O)CCCC/C=C/C(C)C)ccc1O [purified capsaicin, N-(4-hydroxy-3-methoxybenzyl)-8-methylnon-trans-6-enamide]
[1]
  plasma concentrations in the 10 μg dose group compared with the 100 μg or 300 μg dose groups: clearly lower
[2]; 8 hr
  VAS pain score at operation site (mean +/− SEM): 5.5 +/− 2.3
[2]; 12 hr
  VAS pain score at operation site (mean +/− SEM): 8.2 +/− 3.8
[2]; 24 hr
  VAS pain score at operation site (mean +/− SEM): 1.9 +/− 1.0
[2]; 48 hr
  VAS pain score at operation site (mean +/− SEM): 5.9 +/− 2.5
[2]; [6]
  subjects who did not rescue in 72 hours: 6 subjects
  time at which individual subject required rescue: 1 h and 4 h and 5 h and 8 h and 12 h
[3]; 9 active patients of the 4, 7 and 14 day cohorts, 10-300 μg pooled
  VAS reduction, prior to administration versus day of surgery: 62±14%
[3]; all 3 capsaicin dose groups
  median decrease from baseline to pre-operative time point in VAS for pain at target knee, versus placebo: substantially greater
[3]; any of the dose levels (10 μg, 100 μg, 300 μg)
  treatment related indication of efficacy (VAS): No clear treatment related indication of efficacy
[4]; 100 μg dose group
  duration of post-administration (hyper)algesic pain, individual subject: 9 min
[4]; 300 μg dose group
  duration of post-administration (hyper)algesic pain, individual subjects: 17 minutes and 25 minutes (2×) and 42 minutes
[4]; [7]
  effects on laboratory safety parameters or vital signs: no treatment related effects on laboratory safety parameters or vital signs
  effects on soft tissue, cartilage, or bone upon histopathological examination: no treatment related effects on soft tissue, cartilage, or bone
  erythema, edema, or hemorrhage at the site of injection: no treatment related signs of erythema, edema, or hemorrhage
  leakage of study drug from the joint space: low leakage
  systemic side effects: No treatment related systemic side effects
[4]; knee tissue at replacement 2-14 days after dose
  gross and microscopic pathology: normal
rats
  effect on pain threshold: did not elevate the pain threshold above normal range

## CNCCCN1c2ccccc2CCc2ccccc21 [desipramine]
[5]
  local antinociceptive action: produced local antinociceptive actions

## CN(C)CCC=C1c2ccccc2CCc2ccccc21 [amitriptyline]
[5]
  local antinociceptive action: produced local antinociceptive actions

## CN1C(C(=O)Nc2ccccn2)=C(O)c2ccccc2S1(=O)=O [piroxicam]
patients
  patients experiencing gross bleeding and ulceration: up to 4%
